The values below come from patent US9834558B2, “Substituted bridged urea analogs as sirtuin modulators” (GLAXOSMITHKLINE LLC, priority 2013, dated 2017).

SMILES strings stand for the structures.

The target in the first experiment is T1, SIRT1 (Homo sapiens, UniProt Q96EB6).
T1 sequence (Q96EB6 1-747): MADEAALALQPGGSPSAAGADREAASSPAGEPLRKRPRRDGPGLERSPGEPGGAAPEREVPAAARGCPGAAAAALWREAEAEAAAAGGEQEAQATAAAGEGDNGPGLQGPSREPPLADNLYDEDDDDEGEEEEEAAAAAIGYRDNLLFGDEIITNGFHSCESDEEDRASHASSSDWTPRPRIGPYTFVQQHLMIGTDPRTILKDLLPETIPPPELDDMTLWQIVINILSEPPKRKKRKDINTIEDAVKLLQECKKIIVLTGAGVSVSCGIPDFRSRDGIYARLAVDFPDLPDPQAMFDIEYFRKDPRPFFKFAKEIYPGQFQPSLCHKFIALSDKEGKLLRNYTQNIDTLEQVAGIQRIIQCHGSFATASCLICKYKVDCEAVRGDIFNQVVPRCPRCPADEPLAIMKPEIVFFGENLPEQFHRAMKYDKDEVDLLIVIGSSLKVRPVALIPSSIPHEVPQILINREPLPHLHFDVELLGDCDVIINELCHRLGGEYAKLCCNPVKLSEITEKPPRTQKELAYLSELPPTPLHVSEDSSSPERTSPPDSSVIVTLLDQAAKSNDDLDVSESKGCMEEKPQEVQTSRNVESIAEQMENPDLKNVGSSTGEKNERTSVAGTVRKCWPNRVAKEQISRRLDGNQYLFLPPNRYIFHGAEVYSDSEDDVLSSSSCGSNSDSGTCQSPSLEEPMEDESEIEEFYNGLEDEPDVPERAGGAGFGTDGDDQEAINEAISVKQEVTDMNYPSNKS
Description: Trp mass spectrometry assay of SIRT1 activation. It is filed as biochemical. The following applies: Trp mass spectrometry assay; EC1.5 = concentration of test compound that results in 150% activation of SIRT1. A digest of the protocol:
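Activation read-out: mass-spec measurement of O-acetyl-ADP-ribose or deacetylated Trp peptide versus compound-free controls, giving EC1.5 and Percent Maximum Activation. Reactions ran 25 min at 25 °C, pH 7.5, with 120 μM βNAD+, 0.5 μM acetylated p53-derived peptide and 10 nM His-tagged SIRT1.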
With `N#Cc1cncc(-c2ccc3c(n2)N(C(=O)Nc2ccncn2)[C@H]2CCCN3C2)c1` [Example 558], the “Tryp AVG EC1.5 (μM)” value is given as “B (B (EC1.5 1-25 μM))”. Same read-out and setting: the result for `O=C(Nc1cncc(F)c1)N1c2nc(-c3cccc(N4CCOCC4)c3)ccc2N2CCC[C@H]1C2` [Example 559] reads “A (A (EC1.5<1 μM))”; that for `O=C(Nc1cnccn1)N1c2nc(-c3cccc(N4CCOCC4)c3)ccc2N2CCC[C@H]1C2` [Example 560], “B (B (EC1.5 1-25 μM))”; that for `Cc1cc(-c2ccc3c(n2)N(C(=O)Nc2cnc(OC[C@@H](O)CO)cn2)[C@H]2CCN3C2)ccn1` [Example 561], “B (B (EC1.5 1-25 μM))”.

Consider `O=C(Nc1cc(Br)cc(-c2cnco2)c1)N1c2nc(-c3cccc(C(F)(F)F)c3)ccc2N2CC[C@H]1C2` [Example 562], for which the “Tryp AVG EC1.5 (μM)” value is “A (A (EC1.5<1 μM))”.

Consider `O=C(O)c1cc(NC(=S)NCc2ccc(NC(=O)N3c4nc(-c5cccc(C(F)(F)F)c5)ccc4N4CCC[C@H]3C4)cc2)ccc1-c1c2ccc(=O)cc-2oc2cc(O)ccc12` [Example 563], for which the “Tryp AVG EC1.5 (μM)” value was “A (A (EC1.5<1 μM))”. The same measure, in the same setting: the result for `Cc1nc(NC(=O)N2c3nc(-c4cccc(Cl)c4)ccc3N3CCC2CC3)sc1C` [Example 569] reads “B (B (EC1.5 1-25 μM))”; that for `O=C(Nc1ccccn1)N1c2nc(-c3cncc(F)c3)ccc2N2CCC1CC2` [Example 570], “B (B (EC1.5 1-25 μM))”; that for `O=C(Nc1cncc(F)c1)N1c2nc(-c3cncc(F)c3)ccc2N2CCC1CC2` [Example 571], “B (B (EC1.5 1-25 μM))”. Still for that read-out and setting: under `O=C(Nc1cccnc1)N1c2nc(-c3cncc(F)c3)ccc2N2CCC1CC2` [Example 572] stands “B (B (EC1.5 1-25 μM))”; under `O=C(Nc1ccncn1)N1c2nc(-c3cncc(F)c3)ccc2N2CCC1CC2` [Example 573], “C (C (EC1.5>25 μM))”; under `O=C(Nc1cccc(-c2cnco2)c1)N1c2nc(-c3cncc(F)c3)ccc2N2CCC1CC2` [Example 574], “A (A (EC1.5<1 μM))”. On the same count and under the same terms, the result for `O=C(Nc1cccc(-c2cnco2)c1)N1c2nc(-c3cncc(Cl)c3)ccc2N2CCC1CC2` [Example 575] reads “A (A (EC1.5<1 μM))”. Turning to `O=C(Nc1ccncn1)N1c2nc(-c3cncc(Cl)c3)ccc2N2CCC1CC2` [Example 576], the “Tryp AVG EC1.5 (μM)” value is “B (B (EC1.5 1-25 μM))”. On the same count and under the same terms, the result for `Cc1nc(NC(=O)N2c3nc(-c4cncc(F)c4)ccc3N3CCC2CC3)sc1C` [Example 577] reads “B (B (EC1.5 1-25 μM))”; that for `COc1cc(NC(=O)N2c3nc(-c4cncc(F)c4)ccc3N3CCC2CC3)nc(OC)n1` [Example 578], “B (B (EC1.5 1-25 μM))”. Same read-out and setting: the result for `COc1cc(NC(=O)N2c3nc(-c4cncc(F)c4)ccc3N3CCC2CC3)ncn1` [Example 579] reads “B (B (EC1.5 1-25 μM))”; that for `O=C(Nc1ccc(-n2cncn2)cc1)N1c2nc(-c3cncc(C(F)(F)F)c3)ccc2N2CC[C@H]1C2` [Example 580], “A (A (EC1.5<1 μM))”. Same read-out and setting: under `O=C(Nc1cccc(-n2cncn2)c1)N1c2nc(-c3cccc(C(F)(F)F)c3)ccc2N2CC[C@H]1C2` [Example 581] stands “A (A (EC1.5<1 μM))”; under `Cc1ccc(-c2ccc(NC(=O)N3c4nc(-c5cccc(C(F)(F)F)c5)ccc4N4CC[C@H]3C4)cc2)o1` [Example 582], “B (B (EC1.5 1-25 μM))”. For the molecule `Cc1nc(-c2cccc(NC(=O)N3c4nc(-c5cccc(C(F)(F)F)c5)ccc4N4CC[C@H]3C4)c2)cs1` [Example 583], the “Tryp AVG EC1.5 (μM)” value is “A (A (EC1.5<1 μM))”. Same read-out and setting: the result for `O=C(Nc1cccnc1)N1c2nc(-c3cnn(C4CCCC4)c3)ccc2N2CC[C@H]1C2` [Example 587] reads “B (B (EC1.5 1-25 μM))”; that for `O=C(Nc1cccc(-c2cnco2)n1)N1c2nc(-c3cccc(C(F)(F)F)c3)ccc2N2CC[C@H]1C2` [Example 588], “A (A (EC1.5<1 μM))”; that for `O=C(Nc1cc(-c2cnco2)ccn1)N1c2nc(-c3cccc(C(F)(F)F)c3)ccc2N2CC[C@H]1C2` [Example 589], “A (A (EC1.5<1 μM))”.

Regarding `O=C(Nc1cccc(-c2cnco2)n1)N1c2nc(-c3cccc(C(F)(F)F)c3)ccc2N2CCC[C@H]1C2` [Example 590], the “Tryp AVG EC1.5 (μM)” value was “A (A (EC1.5<1 μM))”. The same measure, in the same setting: under `O=C(Nc1cc(-c2cnco2)ccn1)N1c2nc(-c3cccc(C(F)(F)F)c3)ccc2N2CCC[C@H]1C2` [Example 591] stands “A (A (EC1.5<1 μM))”; under `CC(C)(C)OC(=O)N1CCC(c2cccc(NC(=O)N3c4nc(-c5cccc(C(F)(F)F)c5)ccc4N4CC[C@H]3C4)c2)C1` (stereo partly drawn) [Example 592], “A (A (EC1.5<1 μM))”.

As to `O=C(Nc1cccc(C2CCNC2)c1)N1c2nc(-c3cccc(C(F)(F)F)c3)ccc2N2CC[C@H]1C2` (stereo partly drawn) [Example 593], the “Tryp AVG EC1.5 (μM)” value is “A (A (EC1.5<1 μM))”. The same measure, in the same setting: under `NC(=O)CN1CCC(c2cccc(NC(=O)N3c4nc(-c5cccc(C(F)(F)F)c5)ccc4N4CC[C@H]3C4)c2)C1` (stereo partly drawn) [Example 594] stands “A (A (EC1.5<1 μM))”; under `O=C(Nc1cc(-c2cnco2)ccn1)N1c2nc(-c3cccc(C(F)(F)F)c3)ccc2N2CCC1CC2` [Example 595], “A (A (EC1.5<1 μM))”; under `O=C(Nc1cccc(-c2cnco2)n1)N1c2nc(-c3cccc(C(F)(F)F)c3)ccc2N2CCC1CC2` [Example 596], “A (A (EC1.5<1 μM))”. The same measure, in the same setting: under `O=C(NCc1ccccc1)N1c2nc(-c3cccc(C(F)(F)F)c3)ccc2N2CC[C@H]1C2` [Example 597] stands “B (B (EC1.5 1-25 μM))”.

Take `O=C(NCCc1ccccc1)N1c2nc(-c3cccc(C(F)(F)F)c3)ccc2N2CC[C@H]1C2` [Example 598]: the “Tryp AVG EC1.5 (μM)” value is “B (B (EC1.5 1-25 μM))”. As for `O=C(NCCCc1ccccc1)N1c2nc(-c3cccc(C(F)(F)F)c3)ccc2N2CC[C@H]1C2` [Example 599], the “Tryp AVG EC1.5 (μM)” value is “B (B (EC1.5 1-25 μM))”. The same measure, in the same setting: under `O=C(NCCCCc1ccccc1)N1c2nc(-c3cccc(C(F)(F)F)c3)ccc2N2CC[C@H]1C2` [Example 600] stands “B (B (EC1.5 1-25 μM))”. Still for that read-out and setting: the result for `O=C(Nc1ccccn1)N1c2nc(-c3cccc(C(F)(F)F)c3)ccc2N2C[C@@H](O)[C@H]1C2` [Example 601] reads “A (A (EC1.5<1 μM))”; that for `CC(=O)O[C@@H]1CN2C[C@H]1N(C(=O)Nc1ccccn1)c1nc(-c3cccc(C(F)(F)F)c3)ccc12` [Example 602], “B (B (EC1.5 1-25 μM))”. Take `O=C(O[C@@H]1CN2C[C@H]1N(C(=O)Nc1ccccn1)c1nc(-c3cccc(C(F)(F)F)c3)ccc12)c1ccccc1` [Example 603]: the “Tryp AVG EC1.5 (μM)” value is reported as “C (C (EC1.5>25 μM))”. The same measure, in the same setting: under `CC(C)(C)OC(=O)NCCn1cc(-c2cccc(NC(=O)N3c4nc(-c5cccc(C(F)(F)F)c5)ccc4N4CCC[C@H]3C4)c2)nn1` [Example 604] stands “A (A (EC1.5<1 μM))”. The same measure, in the same setting: the result for `CC(C)(C)OC(=O)NCc1cn(-c2cccc(NC(=O)N3c4nc(-c5cccc(C(F)(F)F)c5)ccc4N4CC[C@H]3C4)c2)nn1` [Example 605] reads “A (A (EC1.5<1 μM))”; that for `NCc1cn(-c2cccc(NC(=O)N3c4nc(-c5cccc(C(F)(F)F)c5)ccc4N4CC[C@H]3C4)c2)nn1` [Example 606], “A (A (EC1.5<1 μM))”.

The experiment is the same for the next values; noted with them: Trp mass spectrometry assay; percent maximum fold activation of SIRT1; read-out: Tryp % Fold Act.
For `O=C(Nc1ccc(-n2cncn2)cc1)N1c2nc(-c3cncc(C(F)(F)F)c3)ccc2N2CC[C@H]1C2` [Example 580], the Emax was more than 150%.
